{
  "source": "patent US20060248793A1",
  "about": "“Method for making fungi compatible artificial snow” (priority 2005, published 2006)",
  "key": {"Rhodotorula pilimanae [1]": {"test_system": "Rhodotorula pilimanae", "experiment": "Fungal inhibition, spot test on lawn (Table 1, FIG. 1-3)", "format": "cell-based", "conditions": "HPLC peak material purified from P. syringae 31R cultures", "method": "Ten μL quantities of undiluted filtrate (1) and multiple aliquots of 2-fold dilutions of the filtrate (2-9) were applied to potato dextrose agar plates with freshly streaked R. pilimanae. The plate was incubated for 1 day at 28° C. The cleared spots show fungicidal growth inhibition.\nTen μL quantities of undiluted (1) and 2^−1 (2), 2^−2 (3) and 2^−3 (4) dilutions of the extracts were applied to potato dextrose agar plates with freshly streaked R. pilimanae. The plate was incubated for 1 day at 28° C. The cleared spots show fungicidal growth inhibition.\nSnoMax® (1 g) was suspended in 5 ml H2O. One ml was mixed with 1 ml of acidified acetone, centrifuged, and the supernatant was recovered. An aliquot (200 μL) of the extract was evaporated to near dryness at 40° C. H2O (100 μL) was added and the mixture evenly suspended. Ten μL each of the SnoMax® suspension, extract, and H2O control were spotted onto a fresh lawn of R. pilimanae on PDA medium and incubated at 28° C. for 24 h.\nSnoMax® was obtained from the snow making operation of a local Utah ski resort. One gram was suspended in water and an aliquot was extracted with acidified acetone. The extract was dried, suspended in water, and the solutions were tested for inhibitory activity against R. pilimanae grown as a lawn on potato dextrose agar medium (1) (FIG. 3). This assay is determines syringomycin production."}, "Rhodotorula pilimanae [2]": {"test_system": "Rhodotorula pilimanae", "experiment": "Effect of pH on the antifungal activity of Snomax suspensions (FIG. 4)", "format": "cell-based", "conditions": "R. pilimanae lawn, 28° C., 36 hours", "method": "SnoMax was mixed and suspended with water for 1 hour at room temperature, the pHs were adjusted to 6, 8, or 10 by titrating with dilute solutions of NaOH and HCl, and the suspensions incubated at the final pHs for 1 hour at room temperature. The suspensions were then freeze dried. The freeze dried powders were extracted with acidified acetone, centrifuged, and the supernatant fractions recovered. Acetone was evaporated off at 45° C. and the residues serial diluted (2 fold) in water. Ten microliter aliquots of 2^−1 (a), 2^−2 (b), and 2^−3 (c) dilutions were deposited on a freshly prepared lawn of Rhodotorula pilimanae onto potato-dextrose-casamino acids (PDA-CA) agar medium prepared in Petri dishes. A 10 microliter aliquot of pure syringomycin E (1 mg per ml) was also applied (d). The Petri dishes were incubated at 28° C. for 36 hours. Result: pH 8 and 10 treatments eliminated the antifungal activities of snomax suspension and of syringomycin E, the latter serving as positive control."}, "Laccaria bicolor": {"test_system": "Laccaria bicolor", "experiment": "ECM fungal inhibition (Table 1)", "format": "cell-based", "design": "key: +=fungicidal", "conditions": "unpublished results", "from_the_text": "(§1) In addition to laboratory studies, ECM fungi that exist in high elevation sites of the Rocky Mountains and that are also culturable in artificial media are studied. These include: Amanita muscaria, Boletus edulis, Hebeloma crustuliniform, Laccaria bicolor, Laccaria laccata, Lactarius deliciosus, Lactarius rufus, Suillus brevipes, Suillus tomentosus, Rhizopogon occidentalis, and Rhizopogon subcaerulescens. Cultures of these fungi are available from the laboratory of Kropp, Utah State University or are obtained from the American Type Culture Collection. Syringomycin-containing extracts from P. syringae 31R and SnoMax® are prepared by methods used for extraction of cyclic lipodepsipeptides (FIG. 2) (1). Briefly, equal volumes of acidified acetone are added to bacterial cultures and SnoMax® suspensions. The mixtures are centrifuged and evaporated to give the aqueous extracts for testing. SnoMax® itself is suspended in water (0.1 g per ml), and the suspension is tested for fungicidal activities.\n(§2) For testing, the linear growth of the various ECM fungi in the presence and absence (controls) of extracts and SnoMax® suspensions are analyzed. Sterile agar strips (5 cm×1.5 cm, cut from fresh agar plates and placed in sterile plastic petri dishes) are inoculated at one end with a 5 mm diameter inoculum plug of the ECM fungus to be tested. Paper disks (1 cm diameter) are soaked in filter-sterilized extracts and SnoMax® suspensions and placed at the opposite end of the agar strip. Control strips with disks soaked in sterile distilled water are also be prepared. The concentrations of the extracts to be used are based on the independent determination of the minimal inhibitory concentrations needed to inhibit the in vitro growth of the yeast R. pilimanae. Two levels of 2-fold dilutions above and below this concentration are used. The plates are sealed with Parafilm and incubated at room temperature for several weeks. The extent of linear growth is measured and compared. The ages of the inoculum cultures are standardized and all inoculum disks are taken from the actively growing colony margin. […]"}, "Suillus brevipes": {"test_system": "Suillus brevipes", "experiment": "ECM fungal inhibition (Table 1)", "format": "cell-based", "design": "key: +=fungicidal", "conditions": "unpublished results", "from_the_text": "as §1, §2"}, "Suillus tomentosus": {"test_system": "Suillus tomentosus", "experiment": "ECM fungal inhibition (Table 1)", "format": "cell-based", "design": "key: +=fungicidal", "conditions": "unpublished results", "from_the_text": "as §1, §2"}, "Rhodotorula pilimanae [3]": {"test_system": "Rhodotorula pilimanae", "design": "key: +=fungicidal", "conditions": "references 4, 5; cited from earlier work"}, "Saccharomyces cerevisiae": {"test_system": "Saccharomyces cerevisiae", "design": "key: +=fungicidal", "conditions": "references 3, 5, 8; cited from earlier work"}, "Candida albicans": {"test_system": "Candida albicans", "design": "key: +=fungicidal", "conditions": "references 3, 8; cited from earlier work"}, "Candida kefyr": {"test_system": "Candida kefyr", "design": "key: +=fungicidal", "conditions": "cited from earlier work"}, "Candida krusei": {"test_system": "Candida krusei", "design": "key: +=fungicidal", "conditions": "cited from earlier work"}, "Candida parapsilosis": {"test_system": "Candida parapsilosis", "design": "key: +=fungicidal", "conditions": "cited from earlier work"}, "Candida rugosa": {"test_system": "Candida rugosa", "design": "key: +=fungicidal", "conditions": "cited from earlier work"}, "Candida tropicalis": {"test_system": "Candida tropicalis", "design": "key: +=fungicidal", "conditions": "cited from earlier work"}, "Mucor sp.": {"test_system": "Mucor sp.", "design": "key: +=fungicidal", "conditions": "cited from earlier work"}, "Microsporium sp.": {"test_system": "Microsporium sp.", "design": "key: +=fungicidal", "conditions": "cited from earlier work"}, "Trichophyton sp.": {"test_system": "Trichophyton sp.", "design": "key: +=fungicidal", "conditions": "cited from earlier work"}, "Cryptococcus neoformans": {"test_system": "Cryptococcus neoformans", "design": "key: +=fungicidal", "conditions": "cited from earlier work"}, "Aspergillus fumigatus": {"test_system": "Aspergillus fumigatus", "design": "key: +=fungicidal", "conditions": "cited from earlier work"}, "Aspergillus flavus": {"test_system": "Aspergillus flavus", "design": "key: +=fungicidal", "conditions": "reference 1; cited from earlier work"}, "Aspergillus niger": {"test_system": "Aspergillus niger", "design": "key: +=fungicidal", "conditions": "cited from earlier work"}, "Fusarium moliniforme": {"test_system": "Fusarium moliniforme", "design": "key: +=fungicidal", "conditions": "cited from earlier work"}, "Fusarium oxysporum": {"test_system": "Fusarium oxysporum", "design": "key: +=fungicidal", "conditions": "cited from earlier work"}, "Fusarium solani": {"test_system": "Fusarium solani", "design": "key: +=fungicidal", "conditions": "cited from earlier work"}, "Penicillium expansum": {"test_system": "Penicillium expansum", "design": "key: +=fungicidal", "conditions": "cited from earlier work"}, "Penicillium digitatum": {"test_system": "Penicillium digitatum", "design": "key: +=fungicidal", "conditions": "cited from earlier work"}, "Penicillium radulatum": {"test_system": "Penicillium radulatum", "design": "key: +=fungicidal", "conditions": "cited from earlier work"}, "Penicillium raistrikii": {"test_system": "Penicillium raistrikii", "design": "key: +=fungicidal", "conditions": "cited from earlier work"}, "Geotricum candidum": {"test_system": "Geotricum candidum", "design": "key: +=fungicidal", "conditions": "references 2, 6, 7, 8; cited from earlier work"}, "Geotricum citri-aurantii": {"test_system": "Geotricum citri-aurantii", "design": "key: +=fungicidal", "conditions": "cited from earlier work"}, "Verticillium dahliae": {"test_system": "Verticillium dahliae", "design": "key: +=fungicidal", "conditions": "cited from earlier work"}, "Botrytis cinera": {"test_system": "Botrytis cinera", "design": "key: +=fungicidal", "conditions": "cited from earlier work"}, "Ceratocystis fimbriata": {"test_system": "Ceratocystis fimbriata", "design": "key: +=fungicidal", "conditions": "cited from earlier work"}, "Ustilago maydis": {"test_system": "Ustilago maydis", "design": "key: +=fungicidal", "conditions": "cited from earlier work"}, "Thielaviopsis basicola": {"test_system": "Thielaviopsis basicola", "design": "key: +=fungicidal", "conditions": "cited from earlier work"}, "Phytophthora infestans": {"test_system": "Phytophthora infestans", "design": "key: +=fungicidal", "conditions": "cited from earlier work"}, "Trichoderma atroviridae": {"test_system": "Trichoderma atroviridae", "design": "key: +=fungicidal", "conditions": "cited from earlier work"}, "Rhizoctonia solani": {"test_system": "Rhizoctonia solani", "design": "key: +=fungicidal", "conditions": "cited from earlier work"}, "Alternaria alternate": {"test_system": "Alternaria alternate", "design": "key: +=fungicidal", "conditions": "cited from earlier work"}, "Aureobasidium pullulans": {"test_system": "Aureobasidium pullulans", "design": "key: +=fungicidal", "conditions": "cited from earlier work"}, "Cladosporium herbarum": {"test_system": "Cladosporium herbarum", "design": "key: +=fungicidal", "conditions": "cited from earlier work"}, "Rhizopus sp.": {"test_system": "Rhizopus sp.", "design": "key: +=fungicidal", "conditions": "cited from earlier work"}},
  "data": [
    {"substance": "syringomycin E", "values": [
      {"measurement": "growth inhibitory activity against R. pilimanae, other yeasts and filamentous fungi", "setting": "Rhodotorula pilimanae [1]", "value": "growth inhibitory activity"},
      {"measurement": "antifungal activity after pH treatment", "setting": "Rhodotorula pilimanae [2]; pH 8, 1 hour at room temperature", "value": "eliminated"},
      {"measurement": "antifungal activity after pH treatment", "setting": "Rhodotorula pilimanae [2]; pH 10, 1 hour at room temperature", "value": "eliminated"}
    ]},
    {"substance": "syringomycin [SR]", "values": [
      {"measurement": "Fungal species inhibited", "setting": "Laccaria bicolor", "value": "+"},
      {"measurement": "Fungal species inhibited", "setting": "Suillus brevipes", "value": "+"},
      {"measurement": "Fungal species inhibited", "setting": "Suillus tomentosus", "value": "+"},
      {"measurement": "Fungal species inhibited", "setting": "Rhodotorula pilimanae [3]", "value": "^c+"},
      {"measurement": "Fungal species inhibited", "setting": "Saccharomyces cerevisiae", "value": "+"},
      {"measurement": "Fungal species inhibited", "setting": "Candida albicans", "value": "+"},
      {"measurement": "Fungal species inhibited", "setting": "Candida kefyr", "value": "+"},
      {"measurement": "Fungal species inhibited", "setting": "Candida krusei", "value": "+"},
      {"measurement": "Fungal species inhibited", "setting": "Candida parapsilosis", "value": "+"},
      {"measurement": "Fungal species inhibited", "setting": "Candida rugosa", "value": "+"},
      {"measurement": "Fungal species inhibited", "setting": "Candida tropicalis", "value": "+"},
      {"measurement": "Fungal species inhibited", "setting": "Mucor sp.", "value": "+"},
      {"measurement": "Fungal species inhibited", "setting": "Microsporium sp.", "value": "+"},
      {"measurement": "Fungal species inhibited", "setting": "Trichophyton sp.", "value": "+"},
      {"measurement": "Fungal species inhibited", "setting": "Cryptococcus neoformans", "value": "+"},
      {"measurement": "Fungal species inhibited", "setting": "Aspergillus fumigatus", "value": "+"},
      {"measurement": "Fungal species inhibited", "setting": "Aspergillus flavus", "value": "+"},
      {"measurement": "Fungal species inhibited", "setting": "Aspergillus niger", "value": "+"},
      {"measurement": "Fungal species inhibited", "setting": "Fusarium moliniforme", "value": "+"},
      {"measurement": "Fungal species inhibited", "setting": "Fusarium oxysporum", "value": "+"},
      {"measurement": "Fungal species inhibited", "setting": "Fusarium solani", "value": "+"},
      {"measurement": "Fungal species inhibited", "setting": "Penicillium expansum", "value": "+"},
      {"measurement": "Fungal species inhibited", "setting": "Penicillium digitatum", "value": "+"},
      {"measurement": "Fungal species inhibited", "setting": "Penicillium radulatum", "value": "+"},
      {"measurement": "Fungal species inhibited", "setting": "Penicillium raistrikii", "value": "+"},
      {"measurement": "Fungal species inhibited", "setting": "Geotricum candidum", "value": "+"},
      {"measurement": "Fungal species inhibited", "setting": "Geotricum citri-aurantii", "value": "+"},
      {"measurement": "Fungal species inhibited", "setting": "Verticillium dahliae", "value": "+"},
      {"measurement": "Fungal species inhibited", "setting": "Botrytis cinera", "value": "+"},
      {"measurement": "Fungal species inhibited", "setting": "Ceratocystis fimbriata", "value": "+"},
      {"measurement": "Fungal species inhibited", "setting": "Ustilago maydis", "value": "+"},
      {"measurement": "Fungal species inhibited", "setting": "Thielaviopsis basicola", "value": "+"},
      {"measurement": "Fungal species inhibited", "setting": "Phytophthora infestans", "value": "+"},
      {"measurement": "Fungal species inhibited", "setting": "Trichoderma atroviridae", "value": "+"},
      {"measurement": "Fungal species inhibited", "setting": "Rhizoctonia solani", "value": "+"},
      {"measurement": "Fungal species inhibited", "setting": "Alternaria alternate", "value": "+"},
      {"measurement": "Fungal species inhibited", "setting": "Aureobasidium pullulans", "value": "+"},
      {"measurement": "Fungal species inhibited", "setting": "Cladosporium herbarum", "value": "+"},
      {"measurement": "Fungal species inhibited", "setting": "Rhizopus sp.", "value": "+"}
    ]}
  ]
}
